# Results published in PMC12310023 (PLOS Neglected Tropical Diseases, 2025).
# Read-outs that look alike come from different tables or passages of the source.
# Legend:
# [1] = system: C. parvum U AZ Laboratory isolate; assay: microbe, parasite or virus in culture; format: cell-based, Cryptosporidium parvum; conditions: Cryptosporidium parvum; for EC50: Calibr Crypto Panel 2, 2018-06-18, read-out: Sterling Lab C. parvum Spot Count EC50; for EC90: Calibr Crypto Panel 2, read-out: Sterling Lab C. parvum Spot Count EC90
# [2] = system: C. parvum Bunch Grass Farms isolate; assay: Calibr high-content imaging Cryptosporidium panel; format: cell-based, Cryptosporidium parvum; conditions: Cryptosporidium parvum
# [3] = system: C. parvum Zambriski Laboratory isolate; assay: Calibr high-content imaging Cryptosporidium panel; format: cell-based, Cryptosporidium parvum; conditions: Cryptosporidium parvum; for EC50: read-out: Wild C. parvum Spot Count EC50; for EC90: read-out: Wild C. parvum Spot Count EC90
# C. hominis TU502 isolate = assay: Calibr high-content imaging Cryptosporidium panel; format: cell-based, Cryptosporidium hominis; conditions: Cryptosporidium hominis
# NLuc C. parvum (Calibr) = assay: Calibr panel, UA Nanoluc C. parvum count; format: cell-based; conditions: Cryptosporidium parvum; for EC50: read-out: UA Nanoluc C. parvum Count EC50; for EC90: read-out: UA Nanoluc C. parvum Count EC90
# 72H HEK293T Cytotoxicity = format: cell-based; conditions: human, HEK293T cells
# [4] = HCT-8 host cell count (Calibr); conditions: human
# PPARУ = molecular target: T1, PPARУ (Homo sapiens, UniProt P37231); assay: Cerep cellular and nuclear receptor functional assay; format: cell-based; conditions: read-out: IC50, antagonist effect
# T1 construct: Cerep (Eurofins, France)
# T1 sequence (P37231 1-505): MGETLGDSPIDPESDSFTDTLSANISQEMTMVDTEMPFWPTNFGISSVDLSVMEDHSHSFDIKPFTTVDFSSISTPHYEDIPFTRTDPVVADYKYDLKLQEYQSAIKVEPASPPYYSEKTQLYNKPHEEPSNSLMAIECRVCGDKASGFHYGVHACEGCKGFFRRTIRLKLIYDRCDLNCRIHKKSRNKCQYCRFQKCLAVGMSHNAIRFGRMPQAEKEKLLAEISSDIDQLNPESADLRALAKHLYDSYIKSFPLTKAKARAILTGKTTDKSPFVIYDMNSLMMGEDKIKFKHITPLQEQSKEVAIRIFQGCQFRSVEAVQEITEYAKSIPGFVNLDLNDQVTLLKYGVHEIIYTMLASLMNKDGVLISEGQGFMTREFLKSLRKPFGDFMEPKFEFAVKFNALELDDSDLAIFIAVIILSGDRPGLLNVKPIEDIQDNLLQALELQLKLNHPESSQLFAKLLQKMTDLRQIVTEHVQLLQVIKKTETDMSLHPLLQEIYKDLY
# 5-HT2B = molecular target: T2, 5-HT2B (Homo sapiens, UniProt P41595); assay: as above; format: cell-based; conditions: read-out: IC50, antagonist effect
# T2 construct: Cerep (Eurofins, France)
# [5] = read-out: Bunch Grass Farm C. parvum Count EC50, Crypto Panel 3 Replicate 1
# [6] = read-out: Bunch Grass Farm C. parvum Count EC50, Crypto Panel 3 Replicate 2
# [7] = read-out: Bunch Grass Farm C. parvum Count EC90, Replicate 1
# [8] = read-out: Bunch Grass Farm C. parvum Count EC90, Replicate 2
# [9] = read-out: Bunch Grass Farm C. parvum Spot Count EC50, Calibr Crypto Panel 2
# [10] = read-out: Bunch Grass Farm C. parvum Spot Count EC90, Calibr Crypto Panel 2
# [11] = read-out: C. hominis Spot Count EC50, Calibr Crypto Panel 2, 2018-07-02
# [12] = read-out: C. hominis Spot Count EC90, Calibr Crypto Panel 2
# [13] = read-out: TU502 C. hominis Count EC50, Replicate 1
# [14] = read-out: TU502 C. hominis Count EC50, Replicate 2
# [15] = read-out: TU502 C. hominis Count EC90, Replicate 1
# [16] = read-out: TU502 C. hominis Count EC90, Replicate 2
# [17] = CC50, HCT-8 cells infected with BGF Cp, Replicate 1
# [18] = CC50, HCT-8 cells infected with BGF Cp, Replicate 2
# [19] = CC50, HCT-8 cells infected with Ch, Replicate 1
# [20] = CC50, HCT-8 cells infected with Ch, Replicate 2
# [21] = CC50, HCT-8 cells infected with UA Nluc Cp, Replicate 1
# [22] = CC50, HCT-8 cells infected with UA Nluc Cp, Replicate 2
# [23] = HCT-8 Cell Count CC50, host cells infected with Sterling oocysts
# [24] = Crypto Panel 3 Replicate 1, read-out: Bunch Grass Farm C. parvum Count EC50
# [25] = Crypto Panel 3 Replicate 2, read-out: Bunch Grass Farm C. parvum Count EC50
# [26] = Replicate 1, read-out: Bunch Grass Farm C. parvum Count EC90
# [27] = Replicate 2, read-out: Bunch Grass Farm C. parvum Count EC90
# [28] = Replicate 1, read-out: TU502 C. hominis Count EC50
# [29] = Replicate 1, read-out: TU502 C. hominis Count EC90
# [30] = Replicate 2, read-out: TU502 C. hominis Count EC50
# [31] = Replicate 2, read-out: TU502 C. hominis Count EC90
# T2 sequence (P41595 whole entry): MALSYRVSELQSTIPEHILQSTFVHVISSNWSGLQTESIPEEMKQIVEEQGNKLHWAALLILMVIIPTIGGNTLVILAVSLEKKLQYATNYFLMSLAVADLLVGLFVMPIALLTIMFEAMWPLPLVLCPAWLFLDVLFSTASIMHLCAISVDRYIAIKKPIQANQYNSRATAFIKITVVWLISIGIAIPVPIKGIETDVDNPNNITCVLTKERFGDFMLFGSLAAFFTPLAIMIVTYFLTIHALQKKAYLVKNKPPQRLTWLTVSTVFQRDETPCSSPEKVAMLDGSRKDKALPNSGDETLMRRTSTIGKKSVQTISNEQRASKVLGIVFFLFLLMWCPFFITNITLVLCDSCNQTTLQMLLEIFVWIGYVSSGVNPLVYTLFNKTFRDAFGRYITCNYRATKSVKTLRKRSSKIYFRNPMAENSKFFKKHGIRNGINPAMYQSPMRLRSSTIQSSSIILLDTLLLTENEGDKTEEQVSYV
SMILES,EC50 [1] [µM],EC90 [1] [µM],"EC50 [2, 5] [µM]","EC50 [2, 6] [µM]","EC90 [2, 7] [µM]","EC90 [2, 8] [µM]","EC50 [2, 9] [µM]","EC90 [2, 10] [µM]",EC50 (NLuc C. parvum (Calibr); Replicate 1) [µM],EC90 (NLuc C. parvum (Calibr); Replicate 1) [µM],EC50 (NLuc C. parvum (Calibr); Replicate 2) [µM],EC90 (NLuc C. parvum (Calibr); Replicate 2) [µM],CC50 at 72 h (72H HEK293T Cytotoxicity) [µM],"CC50 [4, 17] [µM]","CC50 [4, 18] [µM]","CC50 [4, 19] [µM]","CC50 [4, 20] [µM]","CC50 [4, 21] [µM]","CC50 [4, 22] [µM]","CC50 [4, 23] [µM]",further results
O=c1[nH]c(=O)n([C@H]2C[C@H](O)[C@@H](CO)O2)cc1F [5-fluoro-2'-deoxyuridine],0.00367,0.00997,0.0397,0.029,0.0688,0.086,0.0031,0.0117,0.0431,0.158,0.0331,0.117,0.00723,0.192,0.0803,0.0718,0.00905,0.196,0.043,0.079,EC50 [3]: 0.00529 µM; EC90 [3]: 0.0804 µM; EC50 (C. hominis TU502 isolate; [11]): 0.0335 µM; EC90 (C. hominis TU502 isolate; [12]): 0.679 µM; EC50 (C. hominis TU502 isolate; [13]): 0.0511 µM; EC50 (C. hominis TU502 isolate; [14]): 0.0292 µM; EC90 (C. hominis TU502 isolate; [15]): 0.196 µM; EC90 (C. hominis TU502 isolate; [16]): 0.222 µM
CC(C)/N=c1\cc2n(-c3ccc(Cl)cc3)c3ccccc3nc-2cc1Nc1ccc(Cl)cc1 [Clofazimine],,,,,,,,,0.0236,0.392,0.067,1.37,,> 25,> 25,> 25,> 25,> 25,> 25,,"EC50 [2, 24]: 0.119 µM; EC50 [2, 25]: 0.678 µM; EC90 [2, 26]: 2.71 µM; EC90 [2, 27]: 1.17 µM; EC50 (C. hominis TU502 isolate; [28]): 0.517 µM; EC90 (C. hominis TU502 isolate; [29]): 1.19 µM; EC50 (C. hominis TU502 isolate; [30]): 0.707 µM; EC90 (C. hominis TU502 isolate; [31]): 1.52 µM"
"O=C(Nc1ccccc1)c1cc([N+](=O)[O-])ccc1Cl [GW 9662, reference compound]",,,,,,,,,,,,,,,,,,,,,IC50 (PPARУ): 0.034 µM
CC(=O)Oc1ccccc1C(=O)Nc1ncc([N+](=O)[O-])s1 [Nitazoxanide],3.94,20.8,,,,,,,> 30,> 30,4.76,25,40.3,> 30,> 30,> 30,> 30,> 30,> 30,19.9,"EC50 [2, 24]: 11.3 µM; EC50 [2, 25]: 6.05 µM; EC90 [2, 26]: 19.6 µM; EC90 [2, 27]: 12 µM; EC50 ([2]; Calibr Crypto Panel 2, read-out: Bunch Grass Farm C. parvum Spot Count EC50): 6.99 µM; EC90 ([2]; Calibr Crypto Panel 2, read-out: Bunch Grass Farm C. parvum Spot Count EC90): 16.8 µM; EC50 ([3]; Calibr Crypto Panel 2): 9.04 µM; EC90 ([3]; Calibr Crypto Panel 2): 15.7 µM; EC50 (C. hominis TU502 isolate; Calibr Crypto Panel 2, 2018-07-02, read-out: C. hominis Spot Count EC50): 5.82 µM; EC90 (C. hominis TU502 isolate; Calibr Crypto Panel 2, read-out: C. hominis Spot Count EC90): 278 µM; EC50 (C. hominis TU502 isolate; [28]): 8.22 µM; EC90 (C. hominis TU502 isolate; [29]): 14.2 µM; EC50 (C. hominis TU502 isolate; [30]): 6.03 µM; EC90 (C. hominis TU502 isolate; [31]): 12.3 µM"
COc1ccc(C[C@H](N)C(=O)N[C@H]2[C@@H](O)[C@H](n3cnc4c(N(C)C)ncnc43)O[C@@H]2CO)cc1 [Puromycin],0.165,0.406,0.403,0.274,1.14,0.847,0.177,0.398,0.337,1.02,0.233,1.32,0.319,3.09,2.81,2.66,2.81,2.97,2.37,3.1,EC50 [3]: 0.274 µM; EC90 [3]: 1.92 µM; EC50 (C. hominis TU502 isolate; [11]): 1.84 µM; EC90 (C. hominis TU502 isolate; [12]): 3.57 µM; EC50 (C. hominis TU502 isolate; [13]): 0.73 µM; EC50 (C. hominis TU502 isolate; [14]): 0.504 µM; EC90 (C. hominis TU502 isolate; [15]): 1.9 µM; EC90 (C. hominis TU502 isolate; [16]): 1.5 µM
"Cn1ccc2cc3c(cc21)CCN3C(=O)Nc1cccnc1 [SB 206553, reference compound]",,,,,,,,,,,,,,,,,,,,,IC50 (5-HT2B): 0.021 µM
